# Earlier results in publication PMC4738315, “How to unveil self-quenched fluorophores and subsequently map the subcellular distribution of exogenous peptides” (Scientific Reports, 2016).
# Target: anionic phospholipids (DOPC/DOPG or POPC/POPG)
# Details: POPC/POPG 75:25; ref 9 (Gonçalves et al., 2005); read-out: Affinity for PLs, Kd
# From the text: page 25: Supplementary Table 1: Sequences of the three studied CPPs and their respective affinities for glycosaminoglycans or anionic phospholipids. Peptide Sequence Affinity for HS, Kd, µM[a] Affinity for PLs, Kd, µM Penetratin (Pen)3 RQIKIWFQNRRMKWKK nd[b] 63 (DOPC/DOPG 90:10)4 Tat peptide (Tat)5 YGRKKRRQRRR 1.676 83 (POPC/POPG 75:25)7 Arg98 RRRRRRRRR 0.329 12 (POPC/POPG 75:25)9 [a] HS: heparan sulfate. [b] nd: not determined. 25
sequence,measurement,value
"RRRRRRRRR [Arg9, nona-arginine, nona-arginine cell-penetrating peptide]",Kd,12 µM
